According to patent US6810371B1 (priority 1906, dated 2004):
Like-named read-outs stand apart in the source and are kept apart here.

Columns and labels:
[1] = Estimated exposure amount of inhabitants (inhalation, percutaneous, oral); settings: for estimated PERCUTANEOUS exposure amount: contact area 4.0 m^2/day; for estimated exposure amount in INHALATION (WINDOW CLOSED): exposure time 24 h/day; for estimated exposure amount in INHALATION (WINDOW OPEN): window opened for 5 minutes after spraying; for estimated ORAL exposure amount: hand surface area ratio about 5 %, oral transference ratio 100 %
Excerpt: estimated exposure amount in inhalation [mg/kg/day]=mean concentration in indoor air [mg/m^3]×amount of respiration [m^3/kg/min]×exposure time [min/day]
estimated percutaneous exposure amount [mg/kg/day]=(mean residual amount [mg/m^2]×skin attachment ratio [%]×contact area [m^2/day])/body weight [kg]
estimated oral exposure amount [mg/kg/day]=estimated percutaneous exposure amount [mg/kg/day]×hand surface area ratio [%]×oral transference ratio [%]
Here, the mean indoor respiration amount of Japanese is 0.220 [L/min/kg] for an adult, and 0.235 [L/min/kg] for an infant. Also, the exposure time was presumed to be 24 [h/day], taking account of the worst case where inhabitants are confined in the room for 24 hours after spraying.
In the table, “window closed” refers to the case where the window is closed throughout the exposure time, whereas “window open” refers to the case where spraying was effected in the state with the closed window and then the window was opened for 5 minutes (Example 3).
Here, it was assumed that the contact area for an infant and an adult was 4.0 [m^2/day], the body weight of the infant was 10.2 [kg], and the body weight of the adult was 50 [kg]. […] These values were used for calculating the estimated percutaneous exposure amount.
Here, while the hand surface area ratio was assumed to be about 5[%], and the oral transference ratio was presumed to be the worst case of 100[%], only the estimated oral exposure amount of the infant was calculated.

rat = assay: Non-influential amount of a rat (inhalation, percutaneous, oral toxicity tests); type: in vivo; settings: for non-influential in-air concentration: 4-week inhalation test (d-phenothrin 4 h/day, 6 days a week; d-tetramethrin 3 h/day, 7 days a week); for non-influential amount in inhalation: 4-week test (d-phenothrin 4 h/day, 6 days a week; d-tetramethrin 3 h/day, 7 days a week), respiration 0.365 L/min/kg; for non-influential amount for oral exposure: 6-month test; for non-influential amount for percutaneous exposure: 21-day test
Excerpt: (6-month test) for oral exposure. […] (6-month test) for oral exposure.

[2] = Procedure: Finally, if it is judged to be safe at S8, S12, or S15, overall safety is evaluated. Here, the sum of respective reciprocals of the previously determined inhalation safety coefficient, percutaneous safety coefficient, and oral safety coefficient is determined, and the reciprocal of thus determined value is defined as an overall safety coefficient (S16).
inhalation safety coefficient=inhalation non-influential amount [mg/kg/day]/estimated exposure amount in inhalation [mg/kg/day]
percutaneous safety coefficient=percutaneous non-influential amount [mg/kg/day]/estimated percutaneous exposure amount [mg/kg/day]
oral safety coefficient=oral non-influential amount [mg/kg/day]/estimated oral exposure amount [mg/kg/day]

[3] = ADULT, respiration 0.220 L/min/kg
[4] = INFANT, respiration 0.235 L/min/kg

Row | Structure (SMILES) | estimated PERCUTANEOUS exposure amount ([1]; ADULT, body weight 50 kg) | estimated exposure amount in INHALATION (WINDOW CLOSED) [1, 3] | estimated exposure amount in INHALATION (WINDOW OPEN) ([1]; ADULT) | estimated PERCUTANEOUS exposure amount ([1]; INFANT, body weight 10.2 kg) | estimated exposure amount in INHALATION (WINDOW CLOSED) [1, 4] | estimated ORAL exposure amount ([1]; INFANT) | estimated exposure amount in INHALATION (WINDOW OPEN) ([1]; INFANT) | non-influential in-air concentration (rat) [mg/m^3] | non-influential amount in inhalation (rat) [mg/kg/day] | non-influential amount for oral exposure (rat) [mg/kg/day] | non-influential amount for percutaneous exposure (rat) [mg/kg/day] | other results
1 | CC(C)=CC1[C@@H](C(=O)OCN2C(=O)C3=C(CCCC3)C2=O)C1(C)C (stereo in doubt) [d-tetramethrin] | 0.438 | 1.01 | 0.202 | 2.15 | 1.12 | 0.107 | 0.224 | 49 | 3.22 | 10.75 | 1000 | 
2 | CC(C)=CC1[C@@H](C(=O)OCc2cccc(Oc3ccccc3)c2)C1(C)C (stereo in doubt) [d-phenothrin] | 0.553 | 0.744 | 0.149 | 2.71 | 0.795 | 0.135 | 0.159 | 210 | 18.4 | 125 | 1000 | INHALATION (WINDOW CLOSED) safety coefficient ([2]; ADULT): 24,700; INHALATION (WINDOW OPEN) safety coefficient ([2]; ADULT): 124,000; PERCUTANEOUS safety coefficient ([2]; ADULT): 1,810,000; TOTAL (WINDOW CLOSED) safety coefficient ([2]; ADULT): 24,400; TOTAL (WINDOW OPEN) safety coefficient ([2]; ADULT): 116,000; INHALATION (WINDOW CLOSED) safety coefficient ([2]; INFANT): 23,100; INHALATION (WINDOW OPEN) safety coefficient ([2]; INFANT): 116,000; ORAL safety coefficient ([2]; INFANT): 923,000; PERCUTANEOUS safety coefficient ([2]; INFANT): 369,000; TOTAL (WINDOW CLOSED) safety coefficient ([2]; INFANT): 21,300; TOTAL (WINDOW OPEN) safety coefficient ([2]; INFANT): 80,400
